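In this assay, cells in 96-well plates receive the compound at five concentrations for 48 hours. Endpoints are linearly interpolated between the surrounding concentrations. TGI marks complete inhibition of growth.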

From PubChem BioAssay (NCI) come the findings set out here.

Some test systems named below: HOP-62 NSCLC; NCI-H226 lung; U251 CNS; OVCAR-5 ovarian; RXF 393 renal; RPMI-8226 leukemia; CCRF-CEM leukemia; A549 NSCLC; PC-3 prostate; K-562 leukemia; NCI/ADR-RES ovarian; SK-MEL-2 melanoma.
What all share (experiment): growth of human tumour cells (NCI), 48 h

In the case of `CC1(C)CC2(C)CC1CC2O` (centres undefined), the TGI in the assay on HOP-62 NSCLC, in the assay on NCI-H226 lung, with U251 CNS, in the assay on OVCAR-5 ovarian, with RXF 393 renal and in the assay with RPMI-8226 leukemia was more than 100 µM in each case. Further, the TGI in the assay with CCRF-CEM leukemia, in the assay with A549 NSCLC, in the assay on PC-3 prostate, in the assay on K-562 leukemia and with NCI/ADR-RES ovarian was more than 100 µM in each case.
For `c1sc(NC2=NCCO2)c2c1CCCC2`, the TGI in the assay on NCI-H226 lung, with U251 CNS, in the assay on OVCAR-5 ovarian, in the assay with SK-MEL-2 melanoma, in the assay on RXF 393 renal and in the assay on RPMI-8226 leukemia was more than 100 µM each time. Besides, the TGI with CCRF-CEM leukemia, with A549 NSCLC, in the assay on PC-3 prostate, in the assay with K-562 leukemia and in the assay with NCI/ADR-RES ovarian was more than 100 µM in each case.
As for `COC(=O)C1=C(C(=O)OC)C2OC1C1C2C2(C)C(C)=C(C)C1(C)S2=O` (centres undefined), the TGI stood at 41.8 µM in the assay with HOP-62 NSCLC; 22.9 µM in the assay on NCI-H226 lung; 26.8 µM in the assay with U251 CNS; 38.8 µM in the assay on OVCAR-5 ovarian; 28 µM in the assay on SK-MEL-2 melanoma; 10.6 µM in the assay on RXF 393 renal. Besides, the TGI in the assay with RPMI-8226 leukemia is 31 µM; with A549 NSCLC it was more than 55.8 µM; in the assay with PC-3 prostate, 45.7 µM; with K-562 leukemia it was more than 100 µM; in the assay with NCI/ADR-RES ovarian, more than 66.5 µM.
Take `CCOC(=O)CCC(NC(=O)c1ccc(OCc2nc3cc(C(F)(F)F)ccc3nc2-c2ccccc2)cc1)C(=O)OCC` (centres undefined): the TGI in the assay with NCI-H226 lung is more than 100 µM; with U251 CNS it was more than 100 µM; in the assay with OVCAR-5 ovarian, more than 100 µM; in the assay with SK-MEL-2 melanoma, 54.1 µM; in the assay on RXF 393 renal it was more than 100 µM; in the assay on RPMI-8226 leukemia it was more than 100 µM. Besides, the TGI in the assay with CCRF-CEM leukemia, in the assay with A549 NSCLC, in the assay on PC-3 prostate, in the assay on K-562 leukemia and in the assay on NCI/ADR-RES ovarian was more than 100 µM throughout.
With `O=C(/C(=C(/Br)I)c1ccccc1)c1ccccc1`, the TGI was 40.4 µM with NCI-H226 lung; 53.1 µM in the assay on U251 CNS; more than 100 µM with OVCAR-5 ovarian; 31.6 µM in the assay on RXF 393 renal; 47.2 µM in the assay with RPMI-8226 leukemia; 30.4 µM with CCRF-CEM leukemia. Besides, the TGI in the assay on A549 NSCLC was more than 100 µM; with PC-3 prostate, more than 100 µM; with K-562 leukemia, 39.3 µM; with NCI/ADR-RES ovarian it was 37.4 µM.
On to `CC(C)(C)C(=O)C(CC(=O)c1ccccc1)C(=O)C(C)(C)C`, for which the TGI in the assay on HOP-62 NSCLC, in the assay with NCI-H226 lung, in the assay on U251 CNS, with OVCAR-5 ovarian, in the assay on SK-MEL-2 melanoma and with RPMI-8226 leukemia was more than 100 µM in each case. Further, the TGI in the assay on CCRF-CEM leukemia, in the assay on A549 NSCLC, in the assay on PC-3 prostate, in the assay on K-562 leukemia and in the assay on NCI/ADR-RES ovarian was more than 100 µM each time.
For the compound `CC(=O)OCC1OC(N2C(=O)/C(=C\c3ccc(Cl)cc3)C(N)=Nc3ccccc32)C(OC(C)=O)C(OC(C)=O)C1OC(C)=O` (centres undefined), the TGI with HOP-62 NSCLC is 85.7 µM; in the assay on U251 CNS, 30.5 µM; in the assay with OVCAR-5 ovarian, more than 100 µM; with SK-MEL-2 melanoma it was 74.6 µM; in the assay on RXF 393 renal, 27.9 µM; in the assay on RPMI-8226 leukemia, 13.8 µM. For the same compound, the TGI was more than 100 µM in the assay on A549 NSCLC, 59.8 µM in the assay with PC-3 prostate, 33.1 µM with K-562 leukemia and more than 100 µM with NCI/ADR-RES ovarian.
For `O=C(Cc1nc2ccc(C(=O)c3ccccc3)cc2[nH]c1=O)C(=O)Nc1ccc(Br)cc1`, the TGI with HOP-62 NSCLC, in the assay on NCI-H226 lung, in the assay on U251 CNS, with OVCAR-5 ovarian, in the assay on SK-MEL-2 melanoma and with RXF 393 renal was more than 100 µM throughout. The TGI in the assay with RPMI-8226 leukemia, in the assay on A549 NSCLC, in the assay with PC-3 prostate, in the assay with K-562 leukemia and in the assay with NCI/ADR-RES ovarian was more than 100 µM throughout.
As for `Cc1ccc2c(c1C)CC1(Cc3c(ccc4c3CCC4)C1=O)C2=O` (centres undefined), the TGI in the assay with NCI-H226 lung, in the assay on U251 CNS, in the assay with OVCAR-5 ovarian, in the assay on SK-MEL-2 melanoma, in the assay on RXF 393 renal and in the assay on RPMI-8226 leukemia was more than 100 µM in each case. The TGI with CCRF-CEM leukemia, in the assay with A549 NSCLC, in the assay with PC-3 prostate, in the assay on K-562 leukemia and in the assay on NCI/ADR-RES ovarian was more than 100 µM throughout.
In the case of `O=c1[nH]c2nc3ccccc3c(=O)n2/c1=C/c1ccc(O)cc1`, the TGI was more than 100 µM with HOP-62 NSCLC; more than 100 µM in the assay on NCI-H226 lung; 83.6 µM in the assay on U251 CNS; more than 100 µM with OVCAR-5 ovarian; more than 100 µM with SK-MEL-2 melanoma; more than 100 µM in the assay on RXF 393 renal. The TGI in the assay on RPMI-8226 leukemia was 53.2 µM; in the assay on CCRF-CEM leukemia, more than 100 µM; in the assay with A549 NSCLC, more than 100 µM; in the assay with PC-3 prostate it was more than 100 µM; in the assay with NCI/ADR-RES ovarian, more than 100 µM.
Consider `O=c1c2c3ccccc3[nH]c2c2cccc3c2n1CCC3`, for which the TGI in the assay on HOP-62 NSCLC, in the assay on NCI-H226 lung, in the assay on U251 CNS, with OVCAR-5 ovarian, with RXF 393 renal and in the assay with CCRF-CEM leukemia was more than 100 µM in each case. Further, the TGI in the assay with A549 NSCLC, in the assay on PC-3 prostate, in the assay with K-562 leukemia and in the assay on NCI/ADR-RES ovarian was more than 100 µM each time.
As for `[N-]=[N+]=Nc1c(Cl)c(=O)n(-c2ccccc2)c2ccccc12`, the TGI in the assay with HOP-62 NSCLC is 58.6 µM; in the assay on OVCAR-5 ovarian, 42.4 µM; in the assay on SK-MEL-2 melanoma, 53.2 µM; with RXF 393 renal, 30.1 µM; with RPMI-8226 leukemia it was more than 100 µM; with CCRF-CEM leukemia, 56.6 µM. Also, the TGI with A549 NSCLC was more than 100 µM; in the assay with PC-3 prostate, 70 µM; in the assay with K-562 leukemia, 49 µM; in the assay with NCI/ADR-RES ovarian it was more than 100 µM.
For `Cc1cc(-c2nc3ccccc3s2)ccc1NS(=O)(=O)O`, the TGI with HOP-62 NSCLC is more than 100 µM; with NCI-H226 lung, more than 100 µM; with U251 CNS, more than 100 µM; in the assay on OVCAR-5 ovarian, more than 100 µM; in the assay on RXF 393 renal it was more than 100 µM; with RPMI-8226 leukemia, more than 10.5 µM. Besides, the TGI in the assay with CCRF-CEM leukemia, in the assay with A549 NSCLC, in the assay on PC-3 prostate, with K-562 leukemia and with NCI/ADR-RES ovarian was more than 100 µM in each case.
